Reference: US20230123334A1, “AMINO LIPID COMPOUND, PREPARATION METHOD THEREFOR, AND APPLICATION THEREOF” (SHENZHEN SHENXIN BIOTECHNOLOGY CO., LTD., priority 2020, published 2023)

Assays:
[1] = Particle size and PDI of lipid nanoparticles (Nano-ZSZEN3600, Malvern); type: physicochemical; conditions: LNPs; for Particle size (nm): Fluc mRNA
Protocol: (§1) The amino lipid compound of the invention was mixed with DOPE, cholesterol and PEG2000-DMG in a molar ratio of 45:10:42.5:2.5, and dissolved in absolute ethanol such that the molar concentration of the amino lipid compound was 0.001-0.01 mmol/L. By using a microinjection pump, the resultant ethanol solution and a sodium acetate solution (50 mM, pH=4.0) in which luciferase mRNA (Fluc mRNA, TriLink) was dissolved were mixed in a volume ratio of 1:3 in a microchannel chip to prepare a crude solution of lipid nanoparticles, which was then dialyzed in 1×PBS at a controlled temperature of 4° C. for 6 h using a dialysis box (Fisher, MWCO 20,000) and filtered through a 0.22 μm microporous filter membrane before use. The mass ratio of the amino lipid compound to Fluc mRNA was about 10:1. The resultant solution of lipid nanoparticles (LNPs) was administered to the tested animals by subcutaneous administration.
Characterization of particle size: the particle size and PDI of the prepared lipid nanoparticles were determined by Nano-ZSZEN3600 (Malvern). 40 uL of LNP solution was taken for particle size measurement with circulation for three times, 30 s for each circulation.
(§2) The preparation method was the same as Formulation method 1, except that amino lipid compound, DSPC, cholesterol and PEG2000-DMG were used in a molar ratio of 50:10:38.5: 1.5. The resultant solution of lipid nanoparticles (LNPs) was administered to the tested animals by tail vein and intramuscular injection.

[2] = Encapsulation rate of LNP RNA (Qubit RNA HS Assay kit); type: physicochemical; conditions: LNPs
Protocol: as §1
Detection of encapsulation rate: the concentration of LNP RNA was detected by Qubit® RNA HS Assay kit. The theoretical RNA concentration was given by the total amount of RNA input divided by the total volume of the final solution.
as §2

[3] = test system: BALB/c mice; experiment: In vivo delivery of luciferase mRNA (Fluc mRNA) by lipid nanoparticles, in vivo imaging; conditions: 0.5 mg/kg Fluc mRNA, after 12 hours
Protocol: as §1, §2
Animal Preparation: 6-week aged female BALB/c mice weighed about 20 g were selected and fed in a SPF-grade feeding room. Animal tests were conducted strictly according to the guidelines of national health institutions and the requirements of animal ethics.
In vivo delivery: 9 mice were assigned randomly to each group, and the lipid nanoparticle solution was injected by three routes of administration, i.e., subcutaneous, intramuscular and tail vein injection at a dosage of 0.5 mg/kg Fluc mRNA (3 mice for each route of administration). After 12 hours, 200 μL of 10 mg/mL potassium salt of […] (PerkinElmer) was injected into each mouse through the tail vein. After 10 min, the mice were placed under an in vivo imaging system (IVIS-200, Xenogen) to observe the total fluorescence intensity of each mouse and take photographs for record. The expression intensity of Fluc mRNA delivered by representative amino lipid compounds through the three routes of administration are shown in Table 5-7. DLin-MC3 was used as control.

[4] = test system: HEK293 cells; experiment: Preliminary screening as DNA vectors, GFP transfection of HEK293 cells; type: cell-based; conditions: HEK293 cells; lipid/DOPE liposome with 75 ng plasmid DNA (psin-EGFP-IRES-Puro); number of cells expressing GFP divided by total number of nuclei (Hoechst)
Procedure, shortened: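 First, amino lipid and DOPE were vortexed in sodium acetate buffer (pH 5.6) to form liposomes. Next, these were held with 75 ng EGFP plasmid at room temperature for 30 min. Finally, HEK293 cells were added, cultured at 37° C., Hoechst-stained, and GFP+/total nuclei scored by imaging.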

[5] = test system: HEK293 cells; experiment: Preliminary screening as mRNA vectors, EGFP mRNA transfection of HEK293 cells; type: cell-based; conditions: HEK293 cells, 96-well plates, EGFP mRNA 50 ng per well; percentage of GFP fluorescent cells relative to total number of cells (Hoechst)
Procedure, shortened: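 Screening format: EGFP mRNA transfection (50 ng/well) into HEK293 in 10% FBS-supplemented DMEM. Percent green fluorescent cells, normalised to Hoechst nuclear count, gave the value; Lipofectamine2000 was the reference transfectant.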

[6] = test system: Hela cells; experiment: Transfection of Hela cell line, DNA vectors; type: cell-based; conditions: 75 ng plasmid DNA, GFP cells / total cells
Procedure, shortened: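 Amino lipid/DOPE liposomes in sodium acetate pH 5.6 were complexed with 75 ng psin-EGFP-IRES-Puro plasmid for 30 min at room temperature, then mixed with 3-5×10^4 Hela cells in DMEM/10% FBS at 37° C. Hoechst stain after 20-24 h, imaging after a further 20-24 h. Efficiency = GFP-positive cells / total nuclei.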

[7] = test system: Hela cells; experiment: Transfection of Hela cell line, mRNA vectors; type: cell-based; conditions: 50 ng EGFP mRNA per well
Procedure, shortened: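 Transfection efficiency was scored as GFP-fluorescent cells over Hoechst-stained total nuclei, with Lipofectamine2000 as reference reagent. Each well of HeLa cells, grown in DMEM plus 10% FBS, received 50 ng EGFP mRNA.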

[8] = test system: MCF7 cells; experiment: Transfection of MCF7 cell line, DNA vectors; type: cell-based; parameters: concentration or dose not given beside the values; conditions: plasmid DNA, GFP cells / total cells
Procedure, shortened: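 Read-out: GFP-positive cells as % of all Hoechst-stained nuclei after 96-well transfection of MCF7 cells grown in serum-supplemented DMEM. Positive control was Lipofectamine2000, used per manufacturer's protocol.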

[9] = test system: MCF7 cells; experiment: Transfection of MCF7 cell line, mRNA vectors; type: cell-based; conditions: 50 ng EGFP mRNA per well
Procedure, shortened: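 Efficiency was scored as the fraction of GFP-fluorescent cells over all Hoechst-counted cells after delivery of 50 ng EGFP mRNA per well. Cells were MCF7 grown in serum-supplemented DMEM, and Lipofectamine2000 served as reference.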

[10] = test system: embryonic stem cells (hESC2); experiment: Screening as DNA vectors in embryonic stem cells, flow cytometry; type: cell-based; conditions: 75 ng plasmid DNA, 48 hours after transfection, flow cytometer
Procedure, shortened: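 hESC2 cells in mTeSR1 on matrigel transfected with 75 ng pSin-EGFP-IRES-Puro complexed with amino lipid/DOPE liposomes formed in sodium acetate pH 5.6; 37 °C, 5% CO2. After 48 h, GFP-positive cells counted by flow cytometry (≥2000 cells), efficiency also expressed relative to Lipofectamine Stem.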

[11] = test system: embryonic stem cells (hESC2); experiment: Screening as mRNA vectors in embryonic stem cells; type: cell-based; conditions: 50 ng EGFP mRNA per well
Procedure, shortened: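 EGFP mRNA (50 ng per well) transfected into hESC2 cells grown in mTeSR1; Lipofectamine Stem served as positive control. Read-out: GFP-fluorescent cells as percentage of total cells.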

[12] = test system: cardiomyocytes; experiment: Screening as DNA vectors in cardiomyocytes; type: cell-based; parameters: concentration or dose not given beside the values; conditions: method as Example 4
Procedure, shortened: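 hESC-derived cardiomyocytes in DMEM with 10% FBS were transfected with a GFP DNA vector; Lipofectamine Stem served as positive control. Read-out: percentage of GFP-positive cells relative to total cells counted by Hoechst nuclear stain.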

[13] = test system: cardiomyocytes; experiment: Screening as mRNA vectors in cardiomyocytes; type: cell-based; conditions: 50 ng EGFP mRNA per well
Procedure, shortened: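 Cardiomyocytes differentiated from hESC, in DMEM with 10% FBS, were transfected with 50 ng EGFP mRNA per well. The read-out was GFP-positive cells as a percentage of Hoechst-stained nuclei, with Lipofectamine Stem as positive control.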

[14] = Formulation Method 1 (amino lipid:DOPE:cholesterol:PEG2000-DMG 45:10:42.5:2.5)
[15] = Formulation method 2 (amino lipid:DSPC:cholesterol:PEG2000-DMG 50:10:38.5:1.5)

| SMILES | PDI ([1]; Formulation Method 1) | Particle size (nm) [1, 14] [nm] | PDI ([1]; Formulation method 2) | Particle size (nm) [1, 15] [nm] | Encapsulation rate ([2]; Formulation Method 1) [%] | Encapsulation rate ([2]; Formulation method 2) [%] | Fluorescence intensity (expression intensity of Fluc mRNA) ([3]; intramuscular administration) | Fluorescence intensity (expression intensity of Fluc mRNA) ([3]; subcutaneous administration) | Fluorescence intensity (expression intensity of Fluc mRNA) ([3]; tail vein administration) | Absolute DNA transfection efficiency in HEK293 cells [4] [%] | Absolute mRNA transfection efficiency in HEK293 cells [5] [%] | Absolute DNA transfection efficiency in Hela cells [6] [%] | Absolute mRNA transfection efficiency in Hela cells [7] [%] | Absolute DNA transfection efficiency in MCF7 cells [8] [%] | Absolute mRNA transfection efficiency in MCF7 cells [9] [%] | Absolute DNA transfection efficiency in embryonic stem cells [10] [%] | Absolute mRNA transfection efficiency in embryonic stem cells [11] [%] | Absolute DNA transfection efficiency in cardiomyocytes [12] [%] | Absolute mRNA transfection efficiency in cardiomyocytes [13] [%] |
| --- | --- | --- | --- | --- | --- | --- | --- | --- | --- | --- | --- | --- | --- | --- | --- | --- | --- | --- | --- |
| CCCCCCCCCCCCCCCCSc1nc(NCCCCCCCCC)nc(NCCN2CCCC2)n1 [Compound S16N9D3] | 0.08 | 87 ± 4 | 0.06 | 127 ± 5 | 98.9 | 99.1 | 4.3E+06 | 2.7E+07 | 5.3E+06 | – | – | – | – | – | – | – | – | – | – |
| CCCCCCCCCCCCCCCCSc1nc(NCC2CCN(C)CC2)nc(SCCCCCCCCCC)n1 [Compound S10S16D10] | 0.03 | 136 ± 5 | 0.04 | 125 ± 5 | 99.5 | 99.2 | 3.2E+06 | 4.7E+07 | 2.9E+06 | 79.4 | 47.4 | – | – | – | – | – | – | – | – |
| CCCCCCCCCCCCCNc1nc(NCCCN(C)C)nc(SCCCCCCCCCCCC)n1 [Compound S12N13D6] | 0.05 | 89 ± 5 | 0.04 | 96 ± 5 | 99.0 | 99.2 | 1.2E+06 | 8.6E+06 | 3.9E+06 | – | – | – | – | – | – | – | – | – | – |
| CCCCC/C=C\C/C=C\CCCCCCCCC(CCCCCCCC/C=C\C/C=C\CCCCC)OC(=O)CCCN(C)C [DLin-MC3, reference compound] | – | – | – | – | – | – | 2.7E+07 | 3.1E+06 | 2.7E+07 | – | – | – | – | – | – | – | – | – | – |
| CCCCCCCCCCCCCCCSc1nc(NCCCCCCCCCCC)nc(NCCN2CCN(C)CC2)n1 [Compound S15N11D5] | 0.02 | 79 ± 5 | 0.01 | 95 ± 5 | 99.2 | 98.8 | 3.7E+06 | 1.9E+08 | 3.7E+06 | – | – | – | – | – | – | – | – | – | – |
| CCCCCCCCCCCCSc1nc(NCCCN2CCOCC2)nc(SCCCCCCCCCCC)n1 [Compound S11S12D8] | 0.02 | 80 ± 5 | 0.01 | 90 ± 5 | 98.3 | 98.9 | 4.7E+06 | 1.1E+07 | 3.8E+06 | 10.7 | 6.7 | – | – | – | – | – | – | – | – |
| CCCCCCCCCCCCCCCSc1nc(NCCN2CCCC2)nc(SCCCCCCCCC)n1 [Compound S9S15D3] | – | – | – | – | – | – | – | – | – | 2.5 | 2.5 | 1.4 | 1.4 | 1.4 | 1.1 | 1.8 | 9.2 | 0.3 | 6.6 |
| CCCCCCCCCCCCCCCCSc1nc(NCCCN2CCN(C)CC2)nc(SCCCCCCCC)n1 [Compound S8S16D9] | 0.01 | 96 ± 5 | 0.02 | 115 ± 5 | 98.7 | 99.4 | 8.2E+06 | 4.2E+06 | 6.5E+06 | 6.7 | 1.5 | – | – | – | – | – | – | – | – |
| CCCCCCCCCCCCSc1nc(NCCCN(C)C)nc(SCCCCCCCCC)n1 [Compound S9S12D6] | – | – | – | – | – | – | – | – | – | 20.2 | 61.6 | 10.9 | 10.9 | 34.2 | 50.4 | 10.5 | 9.3 | 3.3 | 9.5 |
| CCCCCCCCCCCCCCCCSc1nc(NCCCCCCCC)nc(NCC2CCN(C)CC2)n1 [Compound S16N8D10] | 0.04 | 90 ± 5 | 0.03 | 120 ± 5 | 97.2 | 98.6 | 3.9E+06 | 3.7E+08 | 3.2E+06 | – | – | – | – | – | – | – | – | – | – |
